Measurements taken from US11376328B2, “Pharmaceutical composition” (Astellas Pharma Inc., priority 2017, dated 2022).
In brackets after ≈: the same amount, converted by molar mass.

Assay: Solubility in water of the drug substance
Assay type: physicochemical
Conditions: drug substance as used
Excerpt: The drug solubility in water of a drug may be determined, for example, in accordance with the method described in the General Notices of The Japanese Pharmacopoeia, Seventeenth Edition.

| solubility at 30 min (water, 20 °C, thermodynamic from solid) [µg/mL] | Solubility in water [µg/mL] | SMILES |
| --- | --- | --- |
| 5 (≈ 10.4 µM) | – | Cc1cccc(C)c1N(CC(=O)Nc1ccc(-c2ncon2)cc1)C(=O)C1CCS(=O)(=O)CC1 [amenamevir] |
| – | 4 (≈ 4.97 µM) | C=CC[C@@H]1/C=C(\C)C[C@H](C)C[C@H](OC)[C@H]2O[C@@](O)(C(=O)C(=O)N3CCCC[C@H]3C(=O)O[C@H](/C(C)=C/[C@@H]3CC[C@@H](O)[C@H](OC)C3)[C@H](C)[C@@H](O)CC1=O)[C@H](C)C[C@@H]2OC [tacrolimus] |
